Measured values as given in US10577317B2, “Crystal forms and production methods thereof” (Sunovion Pharmaceuticals Inc., priority 2017, dated 2020).
Like-named read-outs stand apart in the source and are kept apart here.

Experiments:
Assay type in all cases: physicochemical
[1] = Solubility (mg/mL) in water, buffers, simulated fluids and organic solvents (Table 1)
[2] = DVS water sorption isotherm, 25° C. scanned over 0 to 95% relative humidity (hygroscopicity)
Source text: In various embodiments, the hygroscopicity of crystal forms of racemic amisulpride, enantiomeric amisulpride, and enantiomeric amisulpride solvates are characterized by dynamic vapor sorption (DVS). DVS is a gravimetric technique that measures how much of a solvent is absorbed by a sample by varying the vapor concentration surrounding the sample (e.g., relative humidity) and measuring the change in mass. In the present application, DVS is used to generate water sorption isotherms, which represent the equilibrium amount of vapor sorbed as a function of steady state relative vapor pressure at a constant temperature.

[3] = Solid form stability on storage at 25° C. and 60% relative humidity; settings: after 4 months at 25° C. and 60% relative humidity (RH)
[4] = DVS, 25° C., 0 to 95% relative humidity

- solubility ([1]; aqueous buffer, 0.05M Acetate Buffer, solution pH 4.5, read-out: Solubility (mg/mL): 0.05M Acetate Buffer): > 100 mg/mL
- solubility ([1]; pH 1.1, Simulated Gastric Fluid (no enzyme), pH adjusted to 1.1 (Form A), 1.2 (Form A′), read-out: Solubility (mg/mL): Simulated Gastric Fluid (no enzyme)): > 100 mg/mL
- solubility ([1]; pH 6.7, fassgf or other biorelevant, Simulated Intestinal Fluid (no enzyme), pH adjusted to 6.7 (Form A), 6.9 (Form A′), read-out: Solubility (mg/mL): Simulated Intestinal Fluid (no enzyme)): > 100 mg/mL
- maximum mass change in water sorption isotherms [2, 4]: 0.35%
- average maximum mass change based on the data of Tables 6B and 6C ([2]; DVS, Tables 6B and 6C only): about 0.16%
- average maximum mass change ([2]; DVS, average over the samples of Tables 6A-6C (Form A′) or 6D-6E (Form A)): about 0.22%
- Change Mass ([2]; FIG. 3D, RH 0 %, elapse time 60.72 min, sorption): 0.00 wt %
- Change Mass ([2]; FIG. 3D, RH 1 %, elapse time 32.02 min, desorption): −0.01 wt %
- Change Mass ([2]; FIG. 3D, RH 10 %, elapse time 31.00 min, desorption): 0.01 wt %
- Change Mass ([2]; FIG. 3D, RH 10 %, elapse time 33.25 min, sorption): 0.03 wt %
- Change Mass ([2]; FIG. 3D, RH 20 %, elapse time 31.89 min, sorption): 0.05 wt %
- Change Mass ([2]; FIG. 3D, RH 20 %, elapse time 32.05 min, desorption): 0.03 wt %
- Change Mass ([2]; FIG. 3D, RH 30 %, elapse time 32.20 min, sorption): 0.07 wt %
- Change Mass ([2]; FIG. 3D, RH 30 %, elapse time 62.67 min, desorption): 0.05 wt %
- Change Mass ([2]; FIG. 3D, RH 40 %, elapse time 31.41 min, desorption): 0.07 wt %
- Change Mass ([2]; FIG. 3D, RH 40 %, elapse time 31.53 min, sorption): 0.09 wt %
- Change Mass ([2]; FIG. 3D, RH 50 %, elapse time 31.95 min, sorption): 0.11 wt %
- Change Mass ([2]; FIG. 3D, RH 50 %, elapse time 32.12 min, desorption): 0.08 wt %
- Change Mass ([2]; FIG. 3D, RH 60 %, elapse time 31.87 min, sorption): 0.13 wt %
- Change Mass ([2]; FIG. 3D, RH 60 %, elapse time 32.10 min, desorption): 0.11 wt %
- Change Mass ([2]; FIG. 3D, RH 70 %, elapse time 31.10 min, sorption): 0.16 wt %
- Change Mass ([2]; FIG. 3D, RH 70 %, elapse time 31.50 min, desorption): 0.14 wt %
- Change Mass ([2]; FIG. 3D, RH 75 %, elapse time 31.01 min, desorption): 0.16 wt %
- Change Mass ([2]; FIG. 3D, RH 75 %, elapse time 31.28 min, sorption): 0.18 wt %
- Change Mass ([2]; FIG. 3D, RH 80 %, elapse time 31.43 min, sorption): 0.19 wt %
- Change Mass ([2]; FIG. 3D, RH 80 %, elapse time 32.11 min, desorption): 0.17 wt %
- Change Mass ([2]; FIG. 3D, RH 90 %, elapse time 31.35 min, desorption): 0.28 wt %
- Change Mass ([2]; FIG. 3D, RH 90 %, elapse time 31.97 min, sorption): 0.25 wt %
- Change Mass ([2]; FIG. 3D, RH 95 %, elapse time 32.77 min, sorption): 0.34 wt %
- Change Mass ([2]; FIG. 3D, RH 95 %, elapse time 36.47 min, desorption): 0.35 wt %
- Change Mass ([2]; FIG. 3E, RH 1.33 %, elapse time 60.4 min): 0.000 wt %
- Change Mass ([2]; FIG. 3E, RH 5.06 %, elapse time 923.6 min): −0.028 wt %
- Change Mass ([2]; FIG. 3E, RH 5.09 %, elapse time 590.9 min): −0.004 wt %
- Change Mass ([2]; FIG. 3E, RH 5.15 %, elapse time 243.7 min): −0.010 wt %
- Change Mass ([2]; FIG. 3E, RH 9.91 %, elapse time 260.3 min): −0.006 wt %
- Change Mass ([2]; FIG. 3E, RH 9.94 %, elapse time 598.9 min): 0.000 wt %
- Change Mass ([2]; FIG. 3E, RH 10.06 %, elapse time 582.9 min): 0.003 wt %
- Change Mass ([2]; FIG. 3E, RH 10.08 %, elapse time 915.6 min): −0.023 wt %
- Change Mass ([2]; FIG. 3E, RH 14.90 %, elapse time 606.9 min): 0.004 wt %
- Change Mass ([2]; FIG. 3E, RH 14.99 %, elapse time 270.3 min): 0.000 wt %
- Change Mass ([2]; FIG. 3E, RH 15.08 %, elapse time 574.9 min): 0.010 wt %
- Change Mass ([2]; FIG. 3E, RH 15.12 %, elapse time 907.6 min): −0.017 wt %
- Change Mass ([2]; FIG. 3E, RH 19.74 %, elapse time 278.3 min): 0.006 wt %
- Change Mass ([2]; FIG. 3E, RH 19.88 %, elapse time 614.9 min): 0.009 wt %
- Change Mass ([2]; FIG. 3E, RH 20.10 %, elapse time 566.9 min): 0.017 wt %
- Change Mass ([2]; FIG. 3E, RH 20.12 %, elapse time 899.6 min): −0.012 wt %
- Change Mass ([2]; FIG. 3E, RH 24.83 %, elapse time 623.9 min): 0.014 wt %
- Change Mass ([2]; FIG. 3E, RH 24.90 %, elapse time 891.6 min): −0.007 wt %
- Change Mass ([2]; FIG. 3E, RH 24.92 %, elapse time 287.8 min): 0.013 wt %
- Change Mass ([2]; FIG. 3E, RH 24.95 %, elapse time 558.9 min): 0.024 wt %
- Change Mass ([2]; FIG. 3E, RH 29.82 %, elapse time 296.8 min): 0.019 wt %
- Change Mass ([2]; FIG. 3E, RH 29.84 %, elapse time 632.9 min): 0.019 wt %
- Change Mass ([2]; FIG. 3E, RH 30.09 %, elapse time 551.4 min): 0.031 wt %
- Change Mass ([2]; FIG. 3E, RH 30.10 %, elapse time 884.1 min): −0.001 wt %
- Change Mass ([2]; FIG. 3E, RH 34.80 %, elapse time 305.8 min): 0.026 wt %
- Change Mass ([2]; FIG. 3E, RH 34.87 %, elapse time 641.9 min): 0.024 wt %
- Change Mass ([2]; FIG. 3E, RH 34.94 %, elapse time 875.6 min): 0.005 wt %
- Change Mass ([2]; FIG. 3E, RH 34.95 %, elapse time 543.9 min): 0.038 wt %
- Change Mass ([2]; FIG. 3E, RH 39.84 %, elapse time 314.8 min): 0.033 wt %
- Change Mass ([2]; FIG. 3E, RH 39.90 %, elapse time 865.6 min): 0.011 wt %
- Change Mass ([2]; FIG. 3E, RH 39.92 %, elapse time 533.9 min): 0.045 wt %
- Change Mass ([2]; FIG. 3E, RH 39.94 %, elapse time 650.9 min): 0.028 wt %
- Change Mass ([2]; FIG. 3E, RH 44.92 %, elapse time 659.9 min): 0.034 wt %
- Change Mass ([2]; FIG. 3E, RH 45.02 %, elapse time 325.8 min): 0.040 wt %
- Change Mass ([2]; FIG. 3E, RH 45.04 %, elapse time 523.9 min): 0.053 wt %
- Change Mass ([2]; FIG. 3E, RH 45.07 %, elapse time 856.1 min): 0.018 wt %
- Change Mass ([2]; FIG. 3E, RH 49.78 %, elapse time 334.8 min): 0.047 wt %
- Change Mass ([2]; FIG. 3E, RH 49.88 %, elapse time 668.9 min): 0.040 wt %
- Change Mass ([2]; FIG. 3E, RH 50.07 %, elapse time 845.0 min): 0.026 wt %
- Change Mass ([2]; FIG. 3E, RH 50.10 %, elapse time 512.9 min): 0.060 wt %
- Change Mass ([2]; FIG. 3E, RH 54.90 %, elapse time 345.8 min): 0.055 wt %
- Change Mass ([2]; FIG. 3E, RH 54.96 %, elapse time 679.9 min): 0.046 wt %
- Change Mass ([2]; FIG. 3E, RH 55.12 %, elapse time 501.9 min): 0.067 wt %
- Change Mass ([2]; FIG. 3E, RH 55.14 %, elapse time 834.0 min): 0.035 wt %
- Change Mass ([2]; FIG. 3E, RH 59.94 %, elapse time 356.8 min): 0.062 wt %
- Change Mass ([2]; FIG. 3E, RH 59.95 %, elapse time 688.9 min): 0.053 wt %
- Change Mass ([2]; FIG. 3E, RH 60.08 %, elapse time 490.9 min): 0.075 wt %
- Change Mass ([2]; FIG. 3E, RH 60.19 %, elapse time 823.0 min): 0.044 wt %
- Change Mass ([2]; FIG. 3E, RH 64.92 %, elapse time 699.9 min): 0.060 wt %
- Change Mass ([2]; FIG. 3E, RH 65.00 %, elapse time 365.8 min): 0.071 wt %
- Change Mass ([2]; FIG. 3E, RH 65.13 %, elapse time 814.0 min): 0.053 wt %
- Change Mass ([2]; FIG. 3E, RH 65.14 %, elapse time 479.9 min): 0.081 wt %
- Change Mass ([2]; FIG. 3E, RH 69.90 %, elapse time 710.9 min): 0.067 wt %
- Change Mass ([2]; FIG. 3E, RH 69.95 %, elapse time 376.8 min): 0.081 wt %
- Change Mass ([2]; FIG. 3E, RH 70.05 %, elapse time 468.9 min): 0.088 wt %
- Change Mass ([2]; FIG. 3E, RH 70.16 %, elapse time 803.0 min): 0.062 wt %
- Change Mass ([2]; FIG. 3E, RH 74.60 %, elapse time 385.8 min): 0.089 wt %
- Change Mass ([2]; FIG. 3E, RH 74.67 %, elapse time 719.9 min): 0.074 wt %
- Change Mass ([2]; FIG. 3E, RH 75.19 %, elapse time 457.9 min): 0.096 wt %
- Change Mass ([2]; FIG. 3E, RH 75.43 %, elapse time 792.0 min): 0.073 wt %
- Change Mass ([2]; FIG. 3E, RH 79.52 %, elapse time 728.9 min): 0.081 wt %
- Change Mass ([2]; FIG. 3E, RH 79.61 %, elapse time 394.8 min): 0.098 wt %
- Change Mass ([2]; FIG. 3E, RH 80.43 %, elapse time 783.0 min): 0.084 wt %
- Change Mass ([2]; FIG. 3E, RH 80.44 %, elapse time 448.8 min): 0.105 wt %
- Change Mass ([2]; FIG. 3E, RH 84.52 %, elapse time 403.8 min): 0.109 wt %
- Change Mass ([2]; FIG. 3E, RH 84.80 %, elapse time 737.9 min): 0.090 wt %
- Change Mass ([2]; FIG. 3E, RH 85.39 %, elapse time 774.0 min): 0.096 wt %
- Change Mass ([2]; FIG. 3E, RH 85.43 %, elapse time 439.8 min): 0.117 wt %
- Change Mass ([2]; FIG. 3E, RH 89.49 %, elapse time 412.8 min): 0.123 wt %
- Change Mass ([2]; FIG. 3E, RH 89.52 %, elapse time 746.9 min): 0.103 wt %
- Change Mass ([2]; FIG. 3E, RH 90.18 %, elapse time 430.8 min): 0.129 wt %
- Change Mass ([2]; FIG. 3E, RH 90.24 %, elapse time 765.0 min): 0.109 wt %
- Change Mass ([2]; FIG. 3E, RH 94.51 %, elapse time 421.8 min): 0.142 wt %
- Change Mass ([2]; FIG. 3E, RH 94.81 %, elapse time 756.0 min): 0.122 wt %
- Change Mass ([2]; FIG. 3F, RH 19.77 %, elapse time 317.2 min): 0.035 wt %
- Change Mass ([2]; FIG. 3F, RH 24.90 %, elapse time 326.2 min): 0.042 wt %
SMILES: CCN1CCC[C@H]1CNC(=O)c1cc(S(=O)(=O)CC)c(N)cc1OC [(S)-amisulpride Form A′, S-4-Amino-N-[(1-ethyl-2-pyrrolidinyl)methyl]-5-(ethylsulfonyl)-2-methoxybenzamide]
- hygroscopicity [2, 4]: substantially non-hygroscopic (less than a 1% maximum mass change in water sorption isotherms, at 25 °C scanned over 0 to 95% relative humidity)
- thermodynamic stability of crystal form (conversion to other polymorphs or amorphous form) [3]: not substantially converting to other polymorphs or amorphous form
